Experimental data taken from PMC7177888, “Aryl-4,5-dihydro-1H-pyrazole-1-carboxamide Derivatives Bearing a Sulfonamide Moiety Show Single-digit Nanomolar-to-Subnanomolar Inhibition Constants against the Tumor-associated Human Carbonic Anhydrases IX and XII” (International Journal of Molecular Sciences, 2020).
Read-outs that look alike come from different tables or passages of the source.

Legend:
Experiment in all cases: stopped-flow CO2 hydrase assay
Type in all cases: biochemical
CA II = target: T1, CA II (Homo sapiens, UniProt P00918)
T1 construct: gene CA2; recombinant, obtained in-house
Method in brief: (§1)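 Recombinant human carbonic anhydrase isoforms, produced in-house, were assayed for CO2 hydration in an Applied Photophysics stopped-flow instrument. The reaction ran in 20 mM Hepes (pH 7.5) with 20 mM Na2SO4 and 0.2 mM phenol red, read at 557 nm for 10–100 s at 1.7–17 mM CO2, after 15 min enzyme–inhibitor preincubation at room temperature. Dilutions went down to 0.01 nM from 0.1 mM aqueous stocks. Ki was fitted by nonlinear least squares with the Cheng–Prusoff equation from uncatalysed-corrected initial rates, as means of at least three determinations.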

CA XII = target: T2, CA XII (Homo sapiens, UniProt O43570)
T2 construct: gene CA12; recombinant, obtained in-house
T2 sequence (O43570 25-354): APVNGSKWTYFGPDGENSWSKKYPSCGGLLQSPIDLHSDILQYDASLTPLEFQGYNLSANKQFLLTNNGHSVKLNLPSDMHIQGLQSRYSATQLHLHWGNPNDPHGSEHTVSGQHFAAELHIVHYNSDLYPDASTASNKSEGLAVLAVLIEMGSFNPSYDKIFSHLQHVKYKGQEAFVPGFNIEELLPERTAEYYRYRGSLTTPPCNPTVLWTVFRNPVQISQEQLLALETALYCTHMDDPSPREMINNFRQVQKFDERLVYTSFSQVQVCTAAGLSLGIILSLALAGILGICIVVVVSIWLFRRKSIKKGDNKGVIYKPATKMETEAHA
Method in brief: as §1

CA IX = target: T3, CA IX (Homo sapiens, UniProt Q16790)
T3 construct: gene CA9; recombinant, obtained in-house
Method in brief: as §1

CA VII = target: T4, CA VII (Homo sapiens, UniProt P43166)
T4 construct: gene CA7; recombinant, obtained in-house
T4 sequence (P43166 whole entry): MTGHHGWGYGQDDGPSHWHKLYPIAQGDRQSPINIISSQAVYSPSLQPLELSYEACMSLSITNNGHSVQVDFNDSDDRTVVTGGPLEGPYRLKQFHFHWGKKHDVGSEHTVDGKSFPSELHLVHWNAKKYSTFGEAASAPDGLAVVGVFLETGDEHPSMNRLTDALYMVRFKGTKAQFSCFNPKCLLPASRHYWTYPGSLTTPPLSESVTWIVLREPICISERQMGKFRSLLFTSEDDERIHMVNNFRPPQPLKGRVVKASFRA
Method in brief: as §1

CA I = target: T5, CA I (Homo sapiens, UniProt P00915)
T5 construct: gene CA1; recombinant, obtained in-house
T5 sequence (P00915 2-261): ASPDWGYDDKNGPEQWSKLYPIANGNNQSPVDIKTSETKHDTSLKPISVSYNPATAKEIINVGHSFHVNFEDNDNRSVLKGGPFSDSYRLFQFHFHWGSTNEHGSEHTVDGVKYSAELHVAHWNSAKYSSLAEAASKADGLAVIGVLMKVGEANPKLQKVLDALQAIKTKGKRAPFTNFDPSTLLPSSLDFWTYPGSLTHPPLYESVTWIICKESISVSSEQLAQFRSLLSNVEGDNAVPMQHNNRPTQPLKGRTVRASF
Method in brief: as §1

Row | Structure (SMILES) | Ki (CA II) | Ki (CA XII) | Ki (CA IX; read-out: KI (nM) / CA IX) | Ki (CA VII) | Ki (CA I) | Ki (CA IX; read-out: KI (nM) / CA II)
1 | NS(=O)(=O)c1ccc(NC(=O)N2N=C(c3ccc(Cl)cc3)CC2c2ccc(Cl)cc2)cc1 (stereo not drawn) [compound 14, 3,5-Bis(4-chlorophenyl)-N-(4-sulfamoylphenyl)-4,5-dihydro-1H-pyrazole-1-carboxamide] | 12.7 nM | 1.1 nM | 11.4 nM | 3.3 nM | 238 nM | 
2 | NS(=O)(=O)c1ccc(NC(=O)N2N=C(c3ccc(Br)cc3)CC2c2ccc(Cl)cc2)cc1 (stereo not drawn) [compound 24, 3-(4-Bromophenyl)-5-(4-chlorophenyl)-4,5-dihydro-pyrazole-1-carboxylic acid (4-sulfamoyl-phenyl)-amide] | 10.7 nM | 0.89 nM | 14.3 nM | 2.7 nM | 45.5 nM | 
3 | Cc1ccc(C2CC(c3ccc(Cl)cc3)=NN2C(=O)Nc2ccc(S(N)(=O)=O)cc2)cc1 (stereo not drawn) [compound 13, 3-(4-Chlorophenyl)-N-(4-sulfamoylphenyl)-5-(p-tolyl)-4,5-dihydro-1H-pyrazole-1-carboxamide] | 12.3 nM | 9.2 nM | 2.9 nM | 4.5 nM | 66.7 nM | 
4 | NS(=O)(=O)c1ccc(NC(=O)N2N=C(c3ccccc3)CC2c2ccc(F)cc2)cc1 (stereo not drawn) [compound 7, 5-(4-Flurophenyl)-3-phenyl-4,5-dihydro-pyrazole-1-carboxylic acid (4-sulfamoyl-phenyl)-amide] | 58.2 nM | 6.3 nM | 1.5 nM | 2.3 nM | 252 nM | 
5 | COc1ccc(C2CC(c3ccc(Cl)cc3)=NN2C(=O)Nc2ccc(S(N)(=O)=O)cc2)cc1 (stereo not drawn) [compound 21, 3-(4-Chlorophenyl)-5-(4-methoxyphenyl)-N-(4-sulfamoylphenyl)-4,5-dihydro-1H-pyrazole-1-carboxamide] | 9.4 nM | 0.82 nM | 2.8 nM | 2.7 nM | 368 nM | 
6 | NS(=O)(=O)c1ccc(NC(=O)N2N=C(c3ccc(Cl)cc3)CC2c2ccc(Cl)cc2Cl)cc1 (stereo not drawn) [compound 17, 3-(4-Chlorophenyl)-5-(2,4-dichlorophenyl)-N-(4-sulfamoylphenyl)-4,5-dihydro-1H-pyrazole-1-carboxamide] | 13.5 nM | 1.3 nM | 15 nM | 27.6 nM | 770 nM | 
7 | COc1ccc(C2CC(c3ccc(Cl)cc3)=NN2C(=O)Nc2ccc(S(N)(=O)=O)cc2)cc1OC (stereo not drawn) [compound 22, 3-(4-Chlorophenyl)-5-(3,4-dimethoxyphenyl)-N-(4-sulfamoylphenyl)-4,5-dihydro-1H-pyrazole-1-carboxamide] | 9.3 nM | 1.5 nM | 2.2 nM | 2.3 nM | 166 nM | 
8 | NS(=O)(=O)c1ccc(NC(=O)N2N=C(c3ccc(Cl)cc3)CC2c2ccc(F)cc2)cc1 (stereo not drawn) [compound 15, 3-(4-Chlorophenyl)-5-(4-fluorophenyl)-N-(4-sulfamoylphenyl)-4,5-dihydro-1H-pyrazole-1-carboxamide] | 71.3 nM | 1 nM | 2.7 nM | 3.2 nM | 617 nM | 
9 | NS(=O)(=O)c1ccc(NC(=O)N2N=C(c3ccc(Cl)cc3)CC2c2cccs2)cc1 (stereo not drawn) [compound 18, 3-(4-Chlorophenyl)-N-(4-sulfamoylphenyl)-5-(thiophen-2-yl)-4,5-dihydro-1H-pyrazole-1-carboxamide] | 9.2 nM | 0.62 nM | 2.5 nM | 2.9 nM | 726 nM | 
10 | NS(=O)(=O)c1ccc(NC(=O)N2N=C(c3ccc(Cl)cc3)CC2c2ccccc2)cc1 (stereo not drawn) [compound 12, 3-(4-Chlorophenyl)-5-phenyl-N-(4-sulfamoylphenyl)-4,5-dihydro-1H-pyrazole-1-carboxamide] | 233 nM | 9.2 nM | 16.5 nM | 350 nM | 239 nM | 
11 | NS(=O)(=O)c1ccc(NC(=O)N2N=C(c3ccccc3)CC2c2ccccc2)cc1 (stereo not drawn) [compound 5, 3,5-Diphenyl-4,5-dihydro-pyrazole-1-carboxylic acid (4-sulfamoyl-phenyl)-amide] | 67.3 nM | 7.7 nM | 1.3 nM | 33.2 nM | 382 nM | 
12 | NS(=O)(=O)c1ccc(NC(=O)N2N=C(c3ccc(Cl)cc3)CC2c2c(F)cccc2Cl)cc1 (stereo not drawn) [compound 19, 5-(2-Chloro-6-fluorophenyl)-3-(4-chlorophenyl)-N-(4-sulfamoylphenyl)-4,5-dihydro-1H-pyrazole-1-carboxamide] | 10.8 nM | 6.8 nM | 2.7 nM | 2.3 nM | 42.7 nM | 

The next compounds have a lower Ki (CA II) than those just listed; values first:

Row | Ki (CA II) | Ki (CA XII) | Ki (CA IX; read-out: KI (nM) / CA IX) | Ki (CA VII) | Ki (CA I) | Ki (CA IX; read-out: KI (nM) / CA II) | Structure (SMILES)
13 | 8.8 nM | 1.7 nM |  | 4.3 nM | 297 nM | 8 nM | NS(=O)(=O)c1ccc(NC(=O)N2N=C(c3ccc(Cl)cc3)CC2c2ccccc2Cl)cc1 (stereo not drawn) [compound 16, 5-(2-Chlorophenyl)-3-(4-chlorophenyl)-N-(4-sulfamoylphenyl)-4,5-dihydro-1H-pyrazole-1-carboxamide]
14 | 8.2 nM | 1.2 nM | 1.4 nM | 7.7 nM | 36.2 nM |  | NS(=O)(=O)c1ccc(NC(=O)N2N=C(c3ccccc3)CC2c2ccc(Cl)cc2)cc1 (stereo not drawn) [compound 6, 5-(4-Chlorophenyl)-3-phenyl-4,5-dihydro-pyrazole-1-carboxylic acid (4-sulfamoyl-phenyl)-amide]
15 | 7.6 nM | 0.99 nM | 76.6 nM | 2.1 nM | 74.2 nM |  | NS(=O)(=O)c1ccc(NC(=O)N2N=C(c3ccc(Cl)cc3)CC2c2ccccc2O)cc1 (stereo not drawn) [compound 20, 3-(4-Chlorophenyl)-5-(2-hydroxyphenyl)-N-(4-sulfamoylphenyl)-4,5-dihydro-1H-pyrazole-1-carboxamide]
16 | 7.1 nM | 6.8 nM | 1.3 nM | 2.4 nM | 293 nM |  | NS(=O)(=O)c1ccc(NC(=O)N2N=C(c3ccccc3)CC2c2c3ccccc3cc3ccccc23)cc1 (stereo not drawn) [compound 10, 5-Anthracene-9-yl-3-phenyl-4,5-dihydro-pyrazole-1-carboxylic acid (4-sulfamoyl-phenyl)-amide]
17 | 6.3 nM | 6.7 nM | 1.4 nM | 2.9 nM | 44.4 nM |  | NS(=O)(=O)c1ccc(NC(=O)N2N=C(c3ccc(Br)cc3)CC2c2ccccc2)cc1 (stereo not drawn) [compound 23, 3-(4-Bromophenyl)-5-phenyl-45-dihydro-pyrazole-1-carboxylic acid (4-sulfamoyl-phenyl)-amide]
18 | 5.5 nM | 2.4 nM | 1.4 nM | 2.6 nM | 38.2 nM |  | NS(=O)(=O)c1ccc(NC(=O)N2N=C(c3ccc(Br)cc3)CC2c2ccc(F)cc2)cc1 (stereo not drawn) [compound 25, 3-(4-Bromophenyl)-5-(4-flurophenyl)-4,5-dihydro-pyrazole-1-carboxylic acid (4-sulfamoyl-phenyl)-amide]
19 | 5.4 nM | 0.84 nM | 1.4 nM | 2.5 nM | 39.5 nM |  | NS(=O)(=O)c1ccc(NC(=O)N2N=C(c3ccccc3)CC2c2ccc(Cl)cc2Cl)cc1 (stereo not drawn) [compound 11, 5-(2,4-Dichlorophenyl)-3-phenyl-4,5-dihydro-pyrazole-1-carboxylic acid (4-sulfamoyl-phenyl)-amide]
20 | 5.2 nM | 1.4 nM | 1.5 nM | 2.4 nM | 38.3 nM |  | NS(=O)(=O)c1ccc(NC(=O)N2N=C(c3ccccc3)CC2c2c(F)cccc2Cl)cc1 (stereo not drawn) [compound 8, 5-(2-Chloro-6-fluorophenyl)-3-phenyl-4,5-dihydro-pyrazole-1-carboxylic acid (4-sulfamoyl-phenyl)-amide]
21 | 5.2 nM | 2.5 nM | 1.4 nM | 1.9 nM | 185 nM |  | NS(=O)(=O)c1ccc(NC(=O)N2N=C(c3ccccc3)CC2c2cccs2)cc1 (stereo not drawn) [compound 9, 3-Phenyl-5-thiophene-2-yl-4,5-dihydro-pyrazole-1-carboxylic acid (4-sulfamoyl-phenyl)-amide]
